Test results reported in ChEMBL document CHEMBL1152873, “Pseurotin A and its analogues as inhibitors of immunoglobulin E [correction of immunoglobuline E] production” (Bioorg Med Chem Lett, 2009).
Calls of active or inactive are those of the source. The rule behind the calls is not given here.

Experiments:
[1] = Inhibition of IL4 and LPS-induced IgE production in BALB/c mouse spleen B cell after 6 days by ELISA; assay type: functional, tissue-based; conditions: 144 h
[2] = Inhibition of PHA-induced BALB/c mouse T cell proliferation at 10 uM; assay type: cell-based
K562 = assay: Cytotoxicity against human K562 cells; assay type: functional, cell-based
[3] = Cytotoxicity against BALB/c mouse B cells assessed as cell viability; assay type: cell-based
B [4] = assay: Inhibition of IL4 and LPS-induced IgG production in BALB/c mouse spleen B cell after 6 days by ELISA; assay type: functional, tissue-based
[5] = Selectivity for IgE production in BALB/c mouse spleen B cells over IgM production in BALB/c mouse spleen B cells; assay type: functional
[6] = Selectivity for IgE production in BALB/c mouse spleen B cells over IgG2a production in BALB/c mouse spleen B cells; assay type: functional
[7] = Selectivity for IgE production in BALB/c mouse spleen B cells over IgG1 production in BALB/c mouse spleen B cells; assay type: functional
B [8] = assay: Inhibition of IL4 and LPS-induced IgM production in BALB/c mouse spleen B cell after 6 days by ELISA; assay type: functional, tissue-based
Lymphocyte [9] = assay: Immunosuppressive activity in rat lymphocytes assessed as inhibition of mixed-lymphocyte reaction; assay type: functional, cell-based
Lymphocyte [10] = assay: Immunosuppressive activity in rat lymphocytes assessed as inhibition of mixed-lymphocyte reaction at 10 uM; assay type: functional, cell-based

SMILES	IC50 [1]	further results
CCCCCC[C@H](O)[C@H](O)C1=C(C)C(=O)[C@]2(O1)C(=O)N[C@@](OC)(C(=O)c1ccccc1)[C@@H]2O	> 10 µM	–
COC(=O)CC[C@H](O)[C@H](O)C1=C(C)C(=O)[C@]2(O1)C(=O)N[C@@](OC)(C(=O)c1ccccc1)[C@@H]2O	> 10 µM	–
CC/C=C\[C@H](O)[C@H](O)C1=C(C)C(=O)[C@]2(O1)C(=O)N[C@@](OC)(C(=O)c1ccccc1F)[C@@H]2O	> 10 µM	–
CC/C=C\[C@H](O)[C@H](O)C1=C(C)C(=O)[C@]2(O1)C(=O)N[C@@](OC)(C(=O)c1cccc(F)c1)[C@@H]2O	> 10 µM	–
CO[C@@]1(C(=O)c2ccccc2)NC(=O)[C@]2(OC(CNCc3ccccc3)=C(C)C2=O)[C@H]1O	> 10 µM	–
CO[C@@]1(C(=O)c2ccccc2)NC(=O)[C@]2(OC(CN(C)Cc3ccccc3)=C(C)C2=O)[C@H]1O	> 10 µM	–
CO[C@@]1(C(=O)c2ccccc2)NC(=O)[C@]2(OC([C@@H](O)[C@@H](O)C=C3CCCCC3)=C(C)C2=O)[C@H]1O	> 10 µM	–
CC/C=C\[C@H]1OC(C)(C)O[C@@H]1C1=C(C)C(=O)[C@]2(O1)C(=O)N[C@@](OC)(C(=O)c1ccccc1)[C@@H]2O	> 10 µM	–
CO[C@@]1(C(=O)c2ccccc2)NC(=O)[C@]2(OC([C@@H](O)[C@@H](O)CCCCc3ccccc3)=C(C)C2=O)[C@H]1O	> 10 µM	–
CO[C@@]1(C(=O)c2ccccc2)NC(=O)[C@]2(OC(CN3CCCCC3)=C(C)C2=O)[C@H]1O	> 10 µM	–
CO[C@@]1(C(=O)c2ccccc2)NC(=O)[C@]2(OC([C@@H](O)[C@@H](O)/C=C/CCc3ccccc3)=C(C)C2=O)[C@H]1O	> 10 µM	–
CC/C=C\[C@H](O)[C@H](O)C1=C(C)C(=O)[C@]2(O1)[C@@H](OC)N[C@@](OC)(C(=O)c1ccccc1)[C@@H]2O [6-O-METHOXYPSEUROTIN A]	> 10 µM	–
CC/C=C\[C@H](O)[C@H](O)C1=C(C)C(=O)[C@]2(O1)C(=O)N(C)[C@@](OC)(C(=O)c1ccccc1)[C@@H]2O [7-N-METHYLPSEUROTIN A]	> 10 µM	–
CC/C=C\[C@H](O)[C@H](O)C1=C(C)C(=O)[C@]2(O1)C(=O)N[C@@](OCC)(C(=O)c1ccccc1)[C@@H]2O [8-ETHOXYPSEUROTIN A]	> 10 µM	–
CC/C=C\[C@H](O)[C@H](O)C1=C(C)C(=O)[C@]2(C[C@](OC)(C(=O)c3ccccc3)NC2=O)O1 [9-DEOXYPSEUROTIN A]	> 10 µM	–
CCC1CC1[C@H](O)[C@H](O)C1=C(C)C(=O)[C@]2(O1)C(=O)N[C@@](OC)(C(=O)c1ccccc1)[C@@H]2O (stereo partly specified) [12,13-CYCLOPROPYLPSEUROTIN A]	> 10 µM	–
CC[C@H](Br)[C@@H](Br)[C@H](O)[C@H](O)C1=C(C)C(=O)[C@]2(O1)C(=O)N[C@@](OC)(C(=O)c1ccccc1)[C@@H]2O [12,13-DIBROMOPSEUROTIN A]	> 10 µM	–
CCCC[C@H](O)[C@H](O)C1=C(C)C(=O)[C@]2(O1)C(=O)N[C@@](OC)(C(=O)c1ccccc1)[C@@H]2O [12,13-DIHYDROXYPSEUROTIN A]	> 10 µM	–
CCC1OC1[C@H](O)[C@H](O)C1=C(C)C(=O)[C@]2(O1)C(=O)N[C@@](OC)(C(=O)c1ccccc1)[C@@H]2O (stereo partly specified) [13-EPOXYPSEUROTIN A]	> 10 µM	–
CC/C=C\[C@H](O)[C@H](O)C1=C(C)C(=O)[C@]2(O1)C(=O)N[C@@](OC)(C(O)c1ccccc1)[C@@H]2O (stereo partly specified) [17-DIHYDROPSEUROTIN A]	> 10 µM	–
C[C@]12C=CC(=O)C=C1CC[C@@H]1[C@@H]2[C@@H](O)C[C@@]2(C)[C@H]1CC[C@]2(O)C(=O)CO [PREDNISOLONE]	0.0059 µM	IC50 (Lymphocyte [9]): 0.078 µM; inhibition at 10 µM [2]: 84%; IC50 [3]: > 10 µM; Ratio [5]: 0.4; Ratio [6]: 0.8; Ratio [7]: 1
CC/C=C\[C@H](O)[C@H](O)C1=C(C)C(=O)[C@]2(O1)C(=O)N[C@@](O)(C(=O)c1ccccc1)[C@@H]2O [PSEUROTIN F2]	> 10 µM	–
CC/C=C\[C@H](OC(C)=O)[C@H](OC(C)=O)C1=C(C)C(=O)[C@]2(O1)C(=O)N(C(C)=O)[C@@](OC)(C(=O)c1ccccc1)[C@@H]2OC(C)=O [TETRAACETYLPSEUROTIN A]	> 10 µM	–
CC/C=C\[C@H](OC(C)=O)[C@H](OC(C)=O)C1=C(C)C(=O)[C@]2(O1)C(=O)N[C@@](OC)(C(=O)c1ccccc1)[C@@H]2OC(C)=O [TRIACETYLPSEUROTIN A]	> 10 µM	–

Further lines, with some results ahead:

IC50 [1]	SMILES	further results
> 10 µM	CNCC1=C(C)C(=O)[C@]2(O1)C(=O)N[C@@](OC)(C(=O)c1ccccc1)[C@@H]2O	–
> 10 µM	CO[C@@]1(C(=O)c2ccccc2)NC(=O)[C@]2(OC(C=O)=C(C)C2=O)[C@H]1O	–
> 10 µM	CC/C=C\[C@@H]1O[C@H]1C1=C(C)C(=O)[C@]2(O1)C(=O)N[C@@](OC)(C(=O)c1ccccc1)[C@@H]2O	–
> 10 µM	CCOC(=O)/C=C/C1=C(C)C(=O)[C@]2(O1)C(=O)N[C@@](OC)(C(=O)c1ccccc1)[C@@H]2O	–
> 10 µM	CO[C@@]1(C(=O)c2ccccc2)NC(=O)[C@]2(OC(/C=C/C=O)=C(C)C2=O)[C@H]1O	–
> 10 µM	CO[C@@]1(C(=O)c2ccccc2)NC(=O)[C@]2(OC(/C=C/C#N)=C(C)C2=O)[C@H]1O	–
> 10 µM	COC(=O)/C=C/[C@H](O)[C@H](O)C1=C(C)C(=O)[C@]2(O1)C(=O)N[C@@](OC)(C(=O)c1ccccc1)[C@@H]2O	–
> 10 µM	C=CCNCC1=C(C)C(=O)[C@]2(O1)C(=O)N[C@@](OC)(C(=O)c1ccccc1)[C@@H]2O	–
> 10 µM	CC/C=C/[C@H](O)[C@H](O)C1=C(C)C(=O)[C@]2(O1)C(=O)N[C@@](OC)(C(=O)c1ccccc1)[C@@H]2O	–
> 10 µM	C/C=C/[C@H](O)[C@H](O)C1=C(C)C(=O)[C@]2(O1)C(=O)N[C@@](OC)(C(=O)c1ccccc1)[C@@H]2O	–
> 10 µM	CCOC(=O)/C=C\C1=C(C)C(=O)[C@]2(O1)C(=O)N[C@@](OC)(C(=O)c1ccccc1)[C@@H]2O	–
> 10 µM	CCOC(=O)/C(C)=C/C1=C(C)C(=O)[C@]2(O1)C(=O)N[C@@](OC)(C(=O)c1ccccc1)[C@@H]2O	–
> 10 µM	CO[C@@]1(C(=O)c2ccccc2)NC(=O)[C@]2(OC(CO)=C(C)C2=O)[C@H]1O	–
> 10 µM	CO[C@@]1(C(=O)c2ccccc2)NC(=O)[C@]2(OC(/C=C/C=C/C(C)=O)=C(C)C2=O)[C@H]1O	–
> 10 µM	CCC[C@H](O)[C@H](O)C1=C(C)C(=O)[C@]2(O1)C(=O)N[C@@](OC)(C(=O)c1ccccc1)[C@@H]2O	–
3.1 µM	CCCCNCC1=C(C)C(=O)[C@]2(O1)C(=O)N[C@@](OC)(C(=O)c1ccccc1)[C@@H]2O	inhibition at 10 µM [2]: 2%; IC50 (K562): > 10 µM; IC50 [3]: > 10 µM
0.066 µM	CC/C=C\[C@H](O)CC1=C(C)C(=O)[C@]2(O1)C(=O)N[C@@](OC)(C(=O)c1ccccc1)[C@@H]2O [10-DEOXYPSEUROTIN A]	inhibition at 10 µM [2]: 0%; IC50 (K562): > 10 µM; IC50 [3]: 4.4 µM; Activity (B [4]): Active; Ratio [5]: 44; Ratio [6]: 23; Ratio [7]: 3.5; Activity (B [8]): Active
> 10 µM	CC/C=C\[C@H](OC)[C@H](O)C1=C(C)C(=O)[C@]2(O1)C(=O)N[C@@](OC)(C(=O)c1ccccc1)[C@@H]2O [11-O-METHYLPSEUROTIN A]	–
3.6 µM	CC/C=C\[C@H](O)[C@H](O)C1=C(C)C(=O)[C@]2(O1)C(=O)N[C@@](OC)(C(=O)c1ccccc1)[C@@H]2O [PSEUROTIN A]	IC50 (Lymphocyte [9]): > 10 µM; inhibition at 10 µM [2]: 0%; IC50 (K562): > 10 µM; IC50 [3]: > 10 µM; Activity (Lymphocyte [10]): inactive
> 10 µM	CO[C@@]1(C(=O)c2ccccc2)NC(=O)[C@]2(OC([C@@H](O)[C@@H](O)/C=C/C(C)=O)=C(C)C2=O)[C@H]1O [PSEUROTIN E]	–
0.26 µM	CC/C=C\[C@H]1O[C@@H]1C1=C(C)C(=O)[C@]2(O1)C(=O)N[C@@](OC)(C(=O)c1ccccc1)[C@@H]2O [SYNERAZOL]	IC50 (Lymphocyte [9]): 3.1 µM; inhibition at 10 µM [2]: 54%; IC50 (K562): > 10 µM; IC50 [3]: > 10 µM
